# Source: paper PMC7251871, “Construction of reporter gene assays using CWP and PDR mutant yeasts for enhanced detection of various sex steroids” (Genes and Environment, 2020)
# Several values for one entry are separate records, joined by “and”; a condition that tells them apart may be missing. Equal entries are not always repeated. Where two headings read alike, the source gives them in different places.
# Key:
# human AR [1] = target: T1, human AR (Homo sapiens, UniProt P10275); assay: AR agonist yeast lacZ reporter gene assay; format: cell-based
# T1 sequence (P10275 1-920): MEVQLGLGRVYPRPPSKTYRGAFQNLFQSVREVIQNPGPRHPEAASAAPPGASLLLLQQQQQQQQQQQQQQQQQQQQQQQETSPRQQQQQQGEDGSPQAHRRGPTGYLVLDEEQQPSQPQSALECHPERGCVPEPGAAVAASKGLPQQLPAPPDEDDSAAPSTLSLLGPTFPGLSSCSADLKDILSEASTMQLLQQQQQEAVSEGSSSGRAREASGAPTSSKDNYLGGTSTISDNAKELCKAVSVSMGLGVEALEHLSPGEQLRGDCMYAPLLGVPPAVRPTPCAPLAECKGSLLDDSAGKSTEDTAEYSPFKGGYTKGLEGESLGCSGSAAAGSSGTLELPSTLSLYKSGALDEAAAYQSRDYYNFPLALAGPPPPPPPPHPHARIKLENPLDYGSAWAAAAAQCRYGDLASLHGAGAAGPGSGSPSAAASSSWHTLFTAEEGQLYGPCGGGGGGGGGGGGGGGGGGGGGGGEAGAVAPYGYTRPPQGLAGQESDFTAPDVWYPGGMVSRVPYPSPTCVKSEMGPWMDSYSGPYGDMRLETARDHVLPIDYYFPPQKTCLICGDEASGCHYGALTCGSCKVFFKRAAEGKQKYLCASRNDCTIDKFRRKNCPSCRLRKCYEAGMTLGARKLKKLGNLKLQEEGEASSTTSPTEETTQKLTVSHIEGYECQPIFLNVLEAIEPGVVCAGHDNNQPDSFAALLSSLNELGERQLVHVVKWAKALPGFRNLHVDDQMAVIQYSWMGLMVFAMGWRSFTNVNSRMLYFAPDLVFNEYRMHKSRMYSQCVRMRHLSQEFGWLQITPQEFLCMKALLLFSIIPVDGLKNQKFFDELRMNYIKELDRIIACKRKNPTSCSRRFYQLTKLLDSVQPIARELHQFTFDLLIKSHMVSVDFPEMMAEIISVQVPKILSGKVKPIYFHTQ
# human ERβ [2] = target: T2, human ERβ (Homo sapiens, UniProt Q92731); assay: ERβ agonist yeast lacZ reporter gene assay; format: cell-based
# T2 sequence (Q92731 whole entry): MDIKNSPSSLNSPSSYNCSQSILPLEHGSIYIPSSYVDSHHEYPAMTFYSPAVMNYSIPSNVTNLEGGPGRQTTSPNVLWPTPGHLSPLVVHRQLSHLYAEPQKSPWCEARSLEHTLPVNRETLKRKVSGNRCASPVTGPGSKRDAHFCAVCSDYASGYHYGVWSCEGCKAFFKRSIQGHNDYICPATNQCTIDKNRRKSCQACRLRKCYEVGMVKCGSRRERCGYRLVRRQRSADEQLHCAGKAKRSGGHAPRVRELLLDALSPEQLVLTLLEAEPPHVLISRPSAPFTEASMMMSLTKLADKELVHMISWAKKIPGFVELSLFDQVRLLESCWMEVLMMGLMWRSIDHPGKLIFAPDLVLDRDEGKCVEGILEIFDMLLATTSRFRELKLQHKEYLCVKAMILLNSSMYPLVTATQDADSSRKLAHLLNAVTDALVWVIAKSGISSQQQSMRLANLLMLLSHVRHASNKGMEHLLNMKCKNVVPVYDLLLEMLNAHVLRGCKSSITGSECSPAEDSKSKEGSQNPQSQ
# human AR [3] = target: T1, human AR; assay: AR antagonist yeast reporter gene assay (competition with testosterone at EC50); format: cell-based; conditions: with testosterone […] nM
# human PR [4] = target: T3, human PR (Homo sapiens, UniProt P06401); assay: PR agonist yeast lacZ reporter gene assay; conditions: for EC50: EC50, agonist assay
# T3 sequence (P06401 1-933): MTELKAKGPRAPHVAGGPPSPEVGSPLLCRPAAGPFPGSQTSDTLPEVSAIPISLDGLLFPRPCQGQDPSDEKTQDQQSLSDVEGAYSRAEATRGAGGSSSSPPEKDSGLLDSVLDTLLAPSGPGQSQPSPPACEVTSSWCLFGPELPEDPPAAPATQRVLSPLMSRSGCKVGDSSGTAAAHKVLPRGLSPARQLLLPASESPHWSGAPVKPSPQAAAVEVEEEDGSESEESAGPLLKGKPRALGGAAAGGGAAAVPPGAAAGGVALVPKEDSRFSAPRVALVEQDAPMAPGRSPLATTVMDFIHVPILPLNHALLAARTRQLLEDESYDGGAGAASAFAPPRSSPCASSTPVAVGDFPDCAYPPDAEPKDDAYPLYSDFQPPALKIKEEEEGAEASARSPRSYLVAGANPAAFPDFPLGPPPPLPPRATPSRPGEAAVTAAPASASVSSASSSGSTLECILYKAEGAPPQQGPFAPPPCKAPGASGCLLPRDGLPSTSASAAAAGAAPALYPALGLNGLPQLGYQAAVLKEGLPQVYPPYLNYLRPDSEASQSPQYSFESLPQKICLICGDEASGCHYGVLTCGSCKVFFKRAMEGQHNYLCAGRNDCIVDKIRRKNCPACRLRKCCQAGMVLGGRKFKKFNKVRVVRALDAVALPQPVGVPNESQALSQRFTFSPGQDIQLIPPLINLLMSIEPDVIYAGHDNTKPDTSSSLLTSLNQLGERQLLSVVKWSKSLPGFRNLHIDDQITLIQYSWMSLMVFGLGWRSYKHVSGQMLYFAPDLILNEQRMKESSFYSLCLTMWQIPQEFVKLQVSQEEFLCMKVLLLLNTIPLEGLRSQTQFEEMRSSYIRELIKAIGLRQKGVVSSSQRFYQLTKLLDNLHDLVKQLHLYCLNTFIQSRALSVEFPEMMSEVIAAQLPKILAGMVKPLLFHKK
# human PR [5] = target: T3, human PR; assay: PR antagonist yeast reporter gene assay (competition with PS at EC50); format: cell-based; conditions: strain cwp1Δpdr5Δ
# human ERβ [6] = target: T2, human ERβ; assay: ERβ antagonist yeast reporter gene assay (competition with E2 at EC50); conditions: co-exposure with E2; data not shown
# human ERα = target: T4, human ERα (Homo sapiens, UniProt P03372); assay: ERα agonist yeast lacZ reporter gene assay; format: cell-based; conditions: strain cwp1Δcwp2Δ
# T4 sequence (P03372 1-595): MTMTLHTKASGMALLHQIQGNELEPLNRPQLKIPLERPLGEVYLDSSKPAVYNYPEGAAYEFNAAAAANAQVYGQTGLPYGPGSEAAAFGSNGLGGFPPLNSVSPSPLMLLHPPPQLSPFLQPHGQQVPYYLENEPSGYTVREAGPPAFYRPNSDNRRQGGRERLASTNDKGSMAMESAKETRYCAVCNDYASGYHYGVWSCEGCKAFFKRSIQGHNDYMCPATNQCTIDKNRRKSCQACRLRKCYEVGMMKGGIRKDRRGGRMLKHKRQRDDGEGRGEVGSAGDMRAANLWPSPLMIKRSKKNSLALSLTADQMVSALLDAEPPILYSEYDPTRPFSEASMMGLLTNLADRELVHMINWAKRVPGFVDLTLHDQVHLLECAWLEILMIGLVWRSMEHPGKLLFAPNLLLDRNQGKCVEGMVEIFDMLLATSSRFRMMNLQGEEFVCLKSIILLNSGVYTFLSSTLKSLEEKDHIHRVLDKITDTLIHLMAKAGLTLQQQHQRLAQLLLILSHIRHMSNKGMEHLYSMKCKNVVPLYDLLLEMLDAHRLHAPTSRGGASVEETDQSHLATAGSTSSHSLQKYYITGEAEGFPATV
# [7] = agonist assay, strain W303a, read-out: EC50
# [8] = agonist assay, strain cwp1Δcwp2Δ, read-out: EC50
smiles,measurement,setting,value
"C[C@]12CCC(=O)C=C1[C@@H]1C[C@@H]1[C@H]1[C@@H]3[C@@H]4C[C@@H]4[C@@]4(CCC(=O)O4)[C@@]3(C)CC[C@@H]12 [DRSP, drospirenone]",constitutive expression of β-gal in reference CYC strains,CYC yeast strains,Neither DNG nor DRSP inhibited
"C[C@]12CC[C@@H]3c4ccc(O)cc4CC[C@H]3[C@@H]1CCC2=O [E1, estrone]",EC50,human AR [1]; EC50,900 nM and 860 nM and 96 nM
"CC/C(=C(\c1ccccc1)c1ccc(OCCN(C)C)cc1)c1ccccc1 [Tam, tamoxifen]",constitutive β-gal expression in control CYC yeasts,CYC yeast strains; 100 μM,less than 60%
"CC#C[C@]1(O)CC[C@H]2[C@@H]3CCC4=CC(=O)CCC4=C3[C@@H](c3ccc(N(C)C)cc3)C[C@@]21C [Mif, mifepristone]",constitutive expression of β-gal in reference CYC strains,CYC yeast strains,not affected
"CC(C)C(=O)Nc1ccc([N+](=O)[O-])c(C(F)(F)F)c1 [Flu, flutamide]",constitutive expression of β-gal in reference CYC strains,CYC yeast strains,not affected
"C[C@]12CC[C@@H]3c4ccc(O)cc4CC[C@H]3[C@@H]1C[C@@H](O)[C@@H]2O [E3, estriol]",EC50,human ERβ [2]; [7],34 nM
same,EC50,human ERβ [2]; [8],1.22 nM
same,Detection limit,human ERβ [2]; strain W303a,0.1 µM
same,Detection limit,human ERβ [2]; strain cwp1Δcwp2Δ,10^−4 μM
"C[C@H]1CCC[C@H](O)CCCCCc2cc(O)cc(O)c2C(=O)O1 [Zer, zeranol]",constitutive expression of β-gal in reference CYC strains,CYC yeast strains; CYC W303a and corresponding CYC mutant strains,not affected
"C[C@]12CCC3=C4CCC(=O)C=C4CC[C@H]3[C@@H]1CC[C@@]2(O)CC#N [DNG, Dienogest]",IC50,human AR [3]; strain cwp1Δpdr5Δ,38100 nM
same,IC50,human AR [3]; strain pdr5Δpdr10Δ,30200 nM
same,constitutive expression of β-gal in reference CYC strains,CYC yeast strains,Neither DNG nor DRSP inhibited
same,EC50,human PR [4]; strain cwp1Δcwp2Δ,6100 nM
same,EC50,human PR [4]; strain cwp1Δpdr5Δ,860 nM
same,"androgenic activity, fold weaker than earlier generation progestins with respect to minimal detection limit concentration",human AR [1]; AR-expressing mutant yeast strains,100 fold
same,EC50,human AR [1]; [7],9780 nM
same,EC50,"human AR [1]; agonist assay, strain cwp1Δpdr5Δ, read-out: EC50",8100 nM
same,EC50,"human AR [1]; agonist assay, strain pdr5Δpdr10Δ, read-out: EC50",2430 nM
"C[C@]12C[C@H](O)[C@H]3[C@@H](CCC4=CC(=O)CC[C@@]43C)[C@@H]1CC[C@@H]2C(=O)CO [CS, corticosterone]",EC50,human PR [4]; strain cwp1Δcwp2Δ,20100 nM
same,EC50,human PR [4]; strain cwp1Δpdr5Δ,18300 nM
"CC(=O)[C@H]1CC[C@H]2[C@@H]3CCC4=CC(=O)CC[C@]4(C)[C@H]3CC[C@]12C [PS, progesterone]",Detection limit,human PR [4]; strain W303a,10 µM
same,Detection limit,human PR [4]; strain cwp1Δcwp2Δ,0.01 µM
same,Detection limit,human PR [4]; strain cwp1Δpdr5Δ,0.01 µM
"C#C[C@]1(O)C=C[C@H]2[C@@H]3CCC4=CC(=O)CC[C@@H]4[C@H]3CC[C@@]21CC [GTD, gestodene]",EC50,human PR [4]; strain W303a,220 nM
same,EC50,human PR [4]; strain cwp1Δpdr5Δ,0.996 nM
same,"androgenic activity, fold weaker than earlier generation progestins with respect to minimal detection limit concentration",human AR [1],10 fold
same,EC50,human AR [1]; EC50,1060 nM and 400 nM
"CC(=O)S[C@@H]1CC2=CC(=O)CC[C@]2(C)[C@H]2CC[C@@]3(C)[C@@H](CC[C@@]34CCC(=O)O4)[C@H]12 [Spi, spironolactone]",constitutive expression of β-gal in reference CYC strains,CYC yeast strains,not affected
same,Maximum inhibition,human PR [5],34.0%
"Cc1c(-c2ccc(O)cc2)nn(-c2ccc(O)cc2)c1-c1ccc(OCCN2CCCCC2)cc1.Cl.Cl [MPP, methyl-piperidino-pyrazoledihydrochloride hydrate]",antagonistic activity,human ERβ [6],undetectable
same,EC50,human ERβ [2]; [7],19200 nM
same,EC50,human ERβ [2]; [8],2730 nM
"C[C@]12CCC(=O)C=C1CC[C@@H]1[C@@H]2[C@@H](O)C[C@]2(C=O)[C@@H](C(=O)CO)CC[C@@H]12 [AS, aldosterone]",EC50,human PR [4]; strain cwp1Δpdr5Δ,9700 nM
"C[C@]12CC[C@H]3[C@@H](CCC4=CC(=O)CC[C@@]43C)[C@@H]1CC[C@@H]2O [TS, Testosterone]",EC50,human PR [4]; strain cwp1Δcwp2Δ,29000 nM
same,EC50,human PR [4]; strain cwp1Δpdr5Δ,31000 nM
same,EC50,"human ERβ [2]; EC50, agonist assay, strain cwp1Δcwp2Δ",870 nM
"C[C@]12CC[C@@H]3c4ccc(O)cc4C[C@@H](CCCCCCCCC[S+]([O-])CCCC(F)(F)C(F)(F)F)[C@H]3[C@@H]1CC[C@@H]2O (some centres unmarked) [ICI, ICI 182, 780]",constitutive β-gal expression in control CYC strains,CYC yeast strains,not repressed
"CCCc1c(-c2ccc(O)cc2)nn(-c2ccc(O)cc2)c1-c1ccc(O)cc1 [PPT, propyl pyrazole triol]",EC50,human ERβ [2]; read-out: EC50,13700 nM and 2340 nM
same,fold lower EC50 value for ERα than ERβ,human ERα,2.5 fold
same,fold lower minimum detection limit for ERα than ERβ,human ERα,10 fold
